Data: publication PMC12067093, “Discovery and optimisation of a covalent ligand for TRIM25 and its application to targeted protein ubiquitination” (Chemical Science, 2025)

Columns and labels:
[1] = biological target: T1, TRIM25 PRYSPRY (Homo sapiens, UniProt Q14258); experiment: Intact protein LCMS covalent labelling of recombinant TRIM25 PRYSPRY; assay type: binding; conditions: TRIM25 PRYSPRY 10 μM, 4 °C; for TRIM25 PRYSPRY labelling: heterobifunctional compound 50 μM, 20 hours; for TRIM25 PRYSPRY labelling (%): purified compound 50 μM, 24 h
T1 construct: His6-TEV (cleaved yes); made in house; host or cells: Sf9 insect cells (baculovirus)
T1 sequence (Q14258 435-630): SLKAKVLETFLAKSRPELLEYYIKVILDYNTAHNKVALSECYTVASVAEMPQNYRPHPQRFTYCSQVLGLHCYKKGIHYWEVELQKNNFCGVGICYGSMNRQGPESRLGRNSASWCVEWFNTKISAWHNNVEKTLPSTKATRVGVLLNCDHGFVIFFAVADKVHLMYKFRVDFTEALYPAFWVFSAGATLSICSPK
Procedure: 1 resin (ThermoFisher Scientific, 89964), eluted in 100 mM HEPES pH 7, 500 mM NaCl,
2 300 mM Imidazole, 5% glycerol, 1 mM TCEP, and stored at -80 °C.
5 into a pET49 vector with a His6-HRV-3C (Human Rhinovirus) tag and expressed in
6 BL21 E.coli cells (Agilent Technologies; 230132), with induction at 18 °C overnight by
7 addition of isopropyl β-D-1-thiogalactopyranoside (0.5 mM). Cells were harvested by
8 centrifugation at 4000 rpm in a Beckman J6-M1 rotor for 30 min at 4 °C, the
9 supernatant was discarded and cell pellets were either immediately lysed, or stored at
10 -80°C. The protein was purified via His6-capture on HisPurTM Ni-NTA resin in buffer
11 50 mM HEPES pH 7.5, 300 mM NaCl, 0.5 mM TCEP, 20 mM imidazole, washed
12 extensively with both high salt buffer (50 mM HEPES pH 7.5, 1 M NaCl, 0.5 mM TCEP,
13 20 mM imidazole) and wash buffer (50 mM HEPES pH 7.5, 300 mM NaCl, 0.5 mM
14 TCEP, 20 mM imidazole) before elution in buffer 50 mM HEPES pH 7.5, 300 mM NaCl,
15 0.5 mM TCEP, 500 mM imidazole, and tag cleavage with HRV-3C protease. Cleaved
16 protein was further purified by ion exchange chromatography and size exclusion
17 chromatography into 20 mM HEPES pH 7.5, 150 mM NaCl, 0.5 mM TCEP, and stored
21 For the original chloroacetamide fragment screen, 0.25 μM TRIM25 PRYSPRY or
23 25 mM HEPES pH 7.5, 50 mM NaCl buffer. For intact protein liquid chromatography
24 mass spectrometry (LCMS) kinetic characterisation, 0.5 μM TRIM25 PRYSPRY was
25 used. For selectivity testing with recombinant ubiquitin system protein panel, 10 µM
27 7.5, 50 mM NaCl buffer. Samples were then diluted to 0.5 µM for TRIM25 PRYSPRY,
28 TRIM21 PRYSPRY, OTUD7B OTU, ZRANB1 OTU or 1 µM for TRIM2 NHL, UBCH5B,
29 UBC13K92A, UEV1A, OTUD4 OTU, before injection into the LCMS. For TRIM25
30 PRYSPRY mutants, and for labelling of heterobifunctional compounds, 10 µM protein
32 mM NaCl buffer, and samples were diluted to 1 µM protein before injection into the […]

[2] = biological target: T2, BRD4 (ubiquitination by TRIM25) (Homo sapiens, UniProt O60885+Q14258); experiment: In vitro targeted protein ubiquitination time course assay for BRD4; assay type: biochemical; conditions: TRIM25 4 μM pre-labelled with compound 50 μM, 20 h, 4 °C, excess removed (HB1a 4 μM added directly); 60 min at 30 °C
T2 construct: Recombinant full-length BRD4 (short isoform); Full-length TRIM25 (4 μM) was pre-labelled with either DMSO or compound HB1, HB2 or HB3; made in house; host or cells: Sf9 insect cells (full-length TRIM25); UBA1 and UBCH5B were made as previously described
T2 sequence (Q14258 whole entry, other chains not shown, canonical isoform): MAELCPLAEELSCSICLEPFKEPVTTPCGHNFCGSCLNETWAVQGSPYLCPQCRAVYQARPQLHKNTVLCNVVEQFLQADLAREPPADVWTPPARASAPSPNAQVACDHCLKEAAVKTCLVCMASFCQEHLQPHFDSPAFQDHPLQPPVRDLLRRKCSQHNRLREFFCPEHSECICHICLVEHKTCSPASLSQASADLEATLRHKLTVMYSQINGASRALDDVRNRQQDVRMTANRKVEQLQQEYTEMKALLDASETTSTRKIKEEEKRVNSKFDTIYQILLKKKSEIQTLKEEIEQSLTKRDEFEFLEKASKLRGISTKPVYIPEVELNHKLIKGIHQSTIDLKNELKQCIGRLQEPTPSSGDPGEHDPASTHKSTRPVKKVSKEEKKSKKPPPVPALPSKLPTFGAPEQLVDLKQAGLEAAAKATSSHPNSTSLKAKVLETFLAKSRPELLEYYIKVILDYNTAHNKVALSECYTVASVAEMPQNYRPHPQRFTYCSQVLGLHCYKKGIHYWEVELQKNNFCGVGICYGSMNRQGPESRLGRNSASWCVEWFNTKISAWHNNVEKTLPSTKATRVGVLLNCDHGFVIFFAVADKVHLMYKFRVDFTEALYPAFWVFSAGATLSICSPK
Procedure: 1 containing 500 mM DTT (ThermoFisher Scientific, R0861). Timepoint at 0 min
2 indicates the sample taken prior to the addition of ATP. Samples were analysed by
3 SDS-PAGE and imaged by Coomassie staining, and using the Odyssey CLx Infrared
4 Imaging System (Li-Cor).
6 For targeted protein ubiquitination assays with compounds HB1 – HB3, His10-TRIM25
8 DMSO) or compound HB1, HB2 or HB3 (50 µM, 1% DMSO) in buffer 50 mM HEPES
9 pH 7.5, 150 mM NaCl, 0.5 mM TCEP for 20 h at 4 °C. Protein-compound complexes
11 capture buffer 50 mM Tris pH 7.5, 150 mM NaCl, 5 mM MgCl2, 20 mM imidazole, 0.5
12 mM TCEP, 0.5% IGEPAL for 2 h at 4 °C, with rotation. Beads were washed once with
13 capture buffer to remove excess unreacted compound. Ubiquitination assay reaction
14 mixture comprised components as described above, with the addition of 4 µM BRD4
15 substrate. For reaction with control compound HB1a (JQ1-2PEG), 4 µM HB1a was
16 added directly to the ubiquitination assay reaction mixture. Samples were analysed as
17 described above, and by western blotting against BRD4 (Abcam, ab128874, 1:1000),
18 which was detected by anti-rabbit-HRP secondary antibody (Dako, P0399, 1:2000).
19 Blots were developed in Amersham ECL Western Blotting Detection Reagent (Cytiva,
20 RPN2106), imaged on a ChemiDoc MP Imaging System (Bio-Rad), and bands were
21 analysed in ImageLab (Bio-Rad). […]

SMILES | TRIM25 PRYSPRY labelling [1] | TRIM25 PRYSPRY labelling (%) [1] | targeted ubiquitination of BRD4 by TRIM25 [2]
Cc1cc(C(=O)N2CCCN(C(=O)CCl)CC2)ccc1-c1cccc(C(=O)NCCOCCOCCOCCOCCNC(=O)C[C@@H]2N=C(c3ccc(Cl)cc3)c3c(sc(C)c3C)-n3c(C)nnc32)c1 [HB3] | 87% |  | heterobifunctional compound-induced ubiquitination of BRD4
CC1Cc2ccccc2N1C(=O)C1CCCN(C(=O)CCl)C1 (stereo not drawn) [Compound 11] |  | 96% | 
Cc1cc(C(=O)N2CCCN(C(=O)CCl)CC2)ccc1-c1ccccc1 [Compound 10] |  | 94% | no targeted ubiquitination of BRD4 was observed

Second part, led by results:

TRIM25 PRYSPRY labelling [1] | TRIM25 PRYSPRY labelling (%) [1] | SMILES | targeted ubiquitination of BRD4 by TRIM25 [2]
75% |  | Cc1cc(C(=O)N2CCCN(C(=O)CCl)CC2)ccc1-c1cccc(C(=O)NCCOCCOCCOCCNC(=O)C[C@@H]2N=C(c3ccc(Cl)cc3)c3c(sc(C)c3C)-n3c(C)nnc32)c1 [HB2] | heterobifunctional compound-induced ubiquitination of BRD4
49% |  | Cc1cc(C(=O)N2CCCN(C(=O)CCl)CC2)ccc1-c1cccc(C(=O)NCCOCCOCCNC(=O)C[C@@H]2N=C(c3ccc(Cl)cc3)c3c(sc(C)c3C)-n3c(C)nnc32)c1 [HB1] | heterobifunctional compound-induced ubiquitination of BRD4
